Data published in US12012396B2, “HDAC inhibitor solid state forms” (Viracta Subsidiary, Inc., priority 2020, dated 2024).
“Also recorded” adds a separate entry of the source. Where a name gives a salt, the structure may show the parent alone.

Experiments:
Type in all cases: physicochemical
[1] = Thermodynamic aqueous solubility; settings: for pH of saturated solution: water, after 24 hours equilibration
Procedure: Aqueous solubility was determined by suspending sufficient compound in 0.5 ml deionized water to give a maximum final concentration of 40 mg/mi of the parent free-form of the compound. The suspension was equilibrated at 25° C., on a Heidolph plate shaker set to 750 rpm for 24 hours. After equilibration, the appearance was noted and the pH of the saturated solution was measured. Samples forming suspensions were centrifuged for 4 min at 13,500 rpm. Samples were then filtered through a glass fiber C filter (particle retention 1.2 μm), before dilution with H2O as appropriate.
Quantitation was by HPLC (see Table 2 for parameters) with reference to a standard solution of approximately 0.15 mg/ml in DMSO. Different volumes of the standard, diluted and undiluted sample solutions were injected. The solubility was calculated using the peak areas determined by integration of the peak found at the same retention time as the principal peak in the standard injection. Analysis was performed on an AgilentHPl 100/Infinity II 1260 series system equipped with a diode array detector and using OpenLAB software.

[2] = Static storage stability at elevated temperature/humidity (XRPD, HPLC purity)
Procedure: XRPD diffractograms were collected on a Bruker D8 diffractometer using Cu Kα, radiation (40 kV, 40 mA) and a 0-20 goniometer fitted with a Ge monochromator. The incident beam passes through a 2.0 mm divergence slit followed by a 0.2 mm anti-scatter slit and knife edge. The diffracted beam passes through an 8.0 mm receiving slit with 2.5° Soller slits followed by the Lynxeye Detector. The software used for data collection and analysis was Diffrac Plus XRD Commander and Diffrac Plus EVA respectively.
XRPD diffractograms were collected on a PANalytical Empyrean diffractometer using Cu Kα, radiation (45 kV, 40 mA) in transmission geometry. A 0.5° slit, 4 mm mask and 0.04 rad Soller slits with a focusing mirror were used on the incident beam. A PIXcel3D detector, placed on the diffracted beam, was fitted with a receiving slit and 0.04 rad Soller slits. The software used for data collection was X'Pert Data Collector using X'Pert Operator Interface. The data were analyzed and presented using Diffrac Plus EVA or HighScore Plus.
Purity analysis was performed on an AgilentHP1100/Infinity 111260 series system equipped with a diode array detector and using OpenLAB software.

[3] = Gravimetric Vapour Sorption (GVS); settings: for XRPD post-GVS: residue after GVS
Procedure: Sorption isotherms were obtained using a SMS DVS Intrinsic moisture sorption analyser, controlled by DVS Intrinsic Control software. The sample temperature was maintained at 25° C. by the instrument controls. The humidity was controlled by mixing streams of dry and wet nitrogen, with a total flow rate of 200 ml/min. The relative humidity was measured by a calibrated Rotronic probe (dynamic range of 1.0-100% RH), located near the sample. The weight change, (mass relaxation) of the sample as a function of % RH was constantly monitored by a microbalance (accuracy ±0.005 mg). Typically, 20-30 mg of sample was placed in a tared mesh stainless steel basket under ambient conditions. The sample was loaded and unloaded at 40% RH and 25° C. (typical room conditions). A moisture sorption isotherm was performed as outlined below (2 scans per complete cycle). The standard isotherm was performed at 25° C. at 10% RH intervals over a 0-90% RH range. Typically, a double cycle (4 scans) was carried out. Data analysis was carried out within Microsoft Excel using the DVS Analysis Suite. [table]

[4] = physchem
Description: There was insufficient residue to characterize these further.

[5] = 7 days / 1 week at 25° C./97% RH
[6] = 7 days / 1 week at 40° C./75% RH

Compound	Solid form by XRPD after static storage [2, 5]	Solid form by XRPD after static storage [2, 6]	XRPD post-GVS [3]	also measured
O=C(NO)c1cnc(N2C[C@@H]3[C@H](C2)[C@H]3NCc2ccc3cc(F)ccc3n2)nc1 [Compound 1, N-hydroxy-2-{6-[(6-fluoro-quinolin-2-ylmethyl)-amino]-3-aza-bicyclo[3.1.0]hex-3-yl}pyrimidine-5-carboxamide]				Solubility in water ([1]; deionized water, 25° C., 24 hours, maximum final concentration 40 mg/ml, listed as Free base): essentially insoluble
O=C(NO)c1cnc(N2C[C@@H]3[C@H](C2)[C@H]3NCc2ccc3cc(F)ccc3n2)nc1 [Free Base Form A, N-hydroxy 2-{6-[(6-fluoro-quinolin-2-ylmethyl)-amino]-3-aza-bicyclo[3.1.0]hex-3-yl}pyrimidine-5-carboxamide]				pH of saturated solution [1]: (pH = 7.4)
O=C(NO)c1cnc(N2C[C@@H]3[C@H](C2)[C@H]3NCc2ccc3cc(F)ccc3n2)nc1 [Free Base Form B, N-hydroxy 2-{6-[(6-fluoro-quinolin-2-ylmethyl)-amino]-3-aza-bicyclo[3.1.0]hex-3-yl}pyrimidine-5-carboxamide]				pH of saturated solution [1]: (pH = 7.4)
O=C(NO)c1cnc(N2C[C@@H]3[C@H](C2)[C@H]3NCc2ccc3cc(F)ccc3n2)nc1 [Mesylate Form 2, N-hydroxy 2-{6-[(6-fluoro-quinolin-2-ylmethyl)-amino]-3-aza-bicyclo[3.1.0]hex-3-yl}pyrimidine-5-carboxamide]	unchanged; also recorded: Mesylate Form 2	unchanged; also recorded: Mesylate Form 2	unchanged; also recorded: XRPD Post-GVS: Mesylate Form 2	HPLC purity after static storage [2, 5]: 99.5%; Solid form by XRPD after static storage ([2]; 7 days / 1 week at 25° C./97% RH, listed as Form 2): stable; HPLC purity after static storage [2, 6]: 99.5%; Solid form by XRPD after static storage ([2]; 7 days / 1 week at 40° C./75% RH, listed as Form 2): stable
O=C(NO)c1cnc(N2C[C@@H]3[C@H](C2)[C@H]3NCc2ccc3cc(F)ccc3n2)nc1 [Mesylate Form 3, N-hydroxy 2-{6-[(6-fluoro-quinolin-2-ylmethyl)-amino]-3-aza-bicyclo[3.1.0]hex-3-yl}pyrimidine-5-carboxamide]	unchanged; also recorded: Mesylate Form 3	conversion to Mesylate Form 5	XRPD Post-GVS: Poorly crystalline broad	Solid form by XRPD after static storage ([2]; 7 days / 1 week at 25° C./97% RH, listed as Form 3): remained as Mesylate Form 3; Solid form by XRPD after static storage ([2]; 7 days / 1 week at 40° C./75% RH, listed as Form 3): convert to Mesylate Form 5; Water content after desorption ([3]; desorption cycle 1 down to 30% RH): 24.30%; Water loss, desorption cycle 1 ([3]; from 30-20% RH): Desorption Cycle 1 22%; Solubility residue pattern in FaSSGF [4]: new solubility residue patterns
O=C(NO)c1cnc(N2C[C@@H]3[C@H](C2)[C@H]3NCc2ccc3cc(F)ccc3n2)nc1 [Mesylate Form 4, N-hydroxy 2-{6-[(6-fluoro-quinolin-2-ylmethyl)-amino]-3-aza-bicyclo[3.1.0]hex-3-yl}pyrimidine-5-carboxamide]	conversion to Mesylate Form 1; also recorded: converted to Mesylate Form 1	mixture of Mesylate Form 1 and Form 4	conversion to Mesylate Form 1; also recorded: Post-GVS: Converted to Mesylate Form 1 by XRPD	Hysteresis in GVS ([3]; RH range of hysteresis): displaying hysteresis loop; Water content loss, desorption cycle 1 ([3]; between 20 to 10% RH): ~9%
O=C(NO)c1cnc(N2C[C@@H]3[C@H](C2)[C@H]3NCc2ccc3cc(F)ccc3n2)nc1 [Mesylate Form 5, N-hydroxy 2-{6-[(6-fluoro-quinolin-2-ylmethyl)-amino]-3-aza-bicyclo[3.1.0]hex-3-yl}pyrimidine-5-carboxamide]	remained as Mesylate Form 5; also recorded: Unchanged: Mesylate Form 5	remained as Mesylate Form 5; also recorded: Unchanged: Mesylate Form 5	unchanged; also recorded: stable; also recorded: XRPD Post-GVS: Mesylate Form 5	Solubility residue pattern in FaSSGF [4]: new solubility residue patterns
O=C(NO)c1cnc(N2C[C@@H]3[C@H](C2)[C@H]3NCc2ccc3cc(F)ccc3n2)nc1 [Mesylate Form 6, N-hydroxy 2-{6-[(6-fluoro-quinolin-2-ylmethyl)-amino]-3-aza-bicyclo[3.1.0]hex-3-yl}pyrimidine-5-carboxamide]	converted to Mesylate Form 1	converted to Mesylate Form 1		
O=C(NO)c1cnc(N2C[C@@H]3[C@H](C2)[C@H]3NCc2ccc3cc(F)ccc3n2)nc1 [Mesylate Form 7, N-hydroxy 2-{6-[(6-fluoro-quinolin-2-ylmethyl)-amino]-3-aza-bicyclo[3.1.0]hex-3-yl}pyrimidine-5-carboxamide]	converted to Mesylate Form 1	converted to Mesylate Form 1		
O=C(NO)c1cnc(N2C[C@@H]3[C@H](C2)[C@H]3NCc2ccc3cc(F)ccc3n2)nc1 [Mesylate Form 8, N-hydroxy 2-{6-[(6-fluoro-quinolin-2-ylmethyl)-amino]-3-aza-bicyclo[3.1.0]hex-3-yl}pyrimidine-5-carboxamide]	converted to Mesylate Form 1	converted to Mesylate Form 1		
O=C(NO)c1cnc(N2C[C@@H]3[C@H](C2)[C@H]3NCc2ccc3cc(F)ccc3n2)nc1 [Mesylate Form 9, N-hydroxy 2-{6-[(6-fluoro-quinolin-2-ylmethyl)-amino]-3-aza-bicyclo[3.1.0]hex-3-yl}pyrimidine-5-carboxamide]	Poorly crystalline - Mesylate Form 1	Mesylate Form 1		Appearance after static storage ([2]; 1 week at 25° C./97% RH): Sample appeared wet - white solid still present; Appearance after static storage ([2]; 1 week at 40° C./75% RH): color change to yellow; also recorded: Sample appeared ‘damp’ - yellow solid present
O=C(NO)c1cnc(N2C[C@@H]3[C@H](C2)[C@H]3NCc2ccc3cc(F)ccc3n2)nc1 [amorphous mesylate salt, N-hydroxy 2-{6-[(6-fluoro-quinolin-2-ylmethyl)-amino]-3-aza-bicyclo[3.1.0]hex-3-yl}pyrimidine-5-carboxamide]				Solid form by XRPD after static storage ([2]; 7 days / 1 week at 25° C./97% RH, listed as amorphous): largely amorphous; Solid form by XRPD after static storage ([2]; 7 days / 1 week at 40° C./75% RH, listed as amorphous): largely amorphous
